Results published in patent US10125184B2, “Apolipoprotein E polypeptides and their use” (priority 2011, dated 2018).

Key:
Huh7.5.1 cells = test: Cytotoxicity/cell viability assay (CellTiter-Glo); type: cell-based; details: 48 hours; hEP up to 100 μg/ml (~14 μM)
Experimental: FIGS. 1A-1C. A human apoE derived peptide (hEP) suppresses HCV infection. (A) Schematic illustration of apoE protein domains and the amino acid sequences of hEP and mEP peptides. The amino acid sequences shown are hEP-1 (SEQ ID NO: 6) and mEP (SEQ ID NO: 20). (B) Dose dependent inhibition of HCVcc infection by hEP. Huh7.5.1 cells were infected with JFH-1 HCVcc-Luc (MOI˜0.5) in the presence of hEP or mEP for 2 hours. After removal of virus and peptides, cells were further incubated for 48 hours prior to luciferase assay. Data are presented as % inhibition relative to control infections in which cells were treated with DMSO (0%). Results are expressed as mean±standard deviation (s.d.) (n=3). (C). Huh7.5.1 cells were treated with hEP or DMSO at indicated doses for 48 hours. The effect of hEP on cell viability was measured by a CellTiter Glo assay kit.
Huh7.5.1 cells (10^5 per well) were treated with hEP or DMSO at various concentrations for 48 hours in 24-well plates. The numbers of viable cells in culture were determined using the CELLTITER-GLO® Cell Viability Luminescent Assay kit according to the manufacturer's instruction (Promega).

HCVcc-luc [1] = test: Time-of-addition assay; type: cell-based, Hepatitis C virus; details: 10 nM bafilomycin A1
Experimental: FIGS. 5A-5D. hEP inhibits HCV entry at the attachment step. (A) HCVcc-luc was first mixed with either scrambled peptide or hEP-2 (20 μg/ml) for one hour at room temperature. In Group 1, mixed virus was directly added to Huh7.5.1 cells, whereas in Group 2, virus was purified through ultracentrifuge at 28,000×g for 4 hours in order to remove peptide, and then used to infect Huh7.5.1 cells. **p<0.005. (B) The kinetics of hEP- and bafilomycin A1-mediated inhibition were determined by time-of-addition assays, as described in the examples section. Fitted lines represent sigmoidal time-dependent curves (mean of n=3; error bars, s.d.). […] Heparin (200 μg/ml), anti-CD81 monoclonal antibody (5 μg/ml), hEP (20 μg/ml), or bafilomycin A1 (10 nM) were present in the media either continuously, during the 4° C. incubation only (attachment), or during the 37° C. incubation phase only (post-attachment). % Inhibition was calculated as 100-percent infection relative to control infections containing DMSO or an isotype antibody control containing 0.01% sodium azide (for anti-CD81 only) (mean of n=3; error bars, s.d.). (D) The effects of hEP (2.7 μM) or scrambled peptide on HCV binding were determined as described in the examples section. Results were calculated as relative RNA copies with numbers obtained from the scrambled peptide treated wells set to 100 (mean of n=3; error bars, s.d.). **p<0.005. […]

HCVcc-luc [2] = test: Attachment versus post-attachment inhibition assay; type: cell-based, Hepatitis C virus; details: heparin 200 μg/ml, anti-CD81 5 μg/ml, hEP 20 μg/ml, bafilomycin A1 10 nM
Experimental: FIGS. 5A-5D. hEP inhibits HCV entry at the attachment step. (A) HCVcc-luc was first mixed with either scrambled peptide or hEP-2 (20 μg/ml) for one hour at room temperature. In Group 1, mixed virus was directly added to Huh7.5.1 cells, whereas in Group 2, virus was purified through ultracentrifuge at 28,000×g for 4 hours in order to remove peptide, and then used to infect Huh7.5.1 cells. **p<0.005. (B) The kinetics of hEP- and bafilomycin A1-mediated inhibition were determined by time-of-addition assays, as described in the examples section. Fitted lines represent sigmoidal time-dependent curves (mean of n=3; error bars, s.d.). (C) HCVcc-Luc was added to Huh7.5.1 cells at 4° C. and incubated for 1.5 hrs. Unbound virus was removed by 2 washes with cold media, fresh media was added, and the cells were shifted to 37° C. to allow synchronous infection to proceed. Heparin (200 μg/ml), anti-CD81 monoclonal antibody (5 μg/ml), hEP (20 μg/ml), or bafilomycin A1 (10 nM) were present in the media either continuously, during the 4° C. incubation only (attachment), or during the 37° C. incubation phase only (post-attachment). % Inhibition was calculated as 100-percent infection relative to control infections containing DMSO or an isotype antibody control containing 0.01% sodium azide (for anti-CD81 only) (mean of n=3; error bars, s.d.). (D) The effects of hEP (2.7 μM) or scrambled peptide on HCV binding were determined as described in the examples section. Results were calculated as relative RNA copies with numbers obtained from the scrambled peptide treated wells set to 100 (mean of n=3; error bars, s.d.). **p<0.005.
To investigate the mechanistic action of hEP, three sets of experiments were conducted. First, hEP-2 (SEQ ID NO: 9) or scrambled peptide-treated HCVcc were purified through ultracentrifugation to remove the peptide and then used to infect naïve Huh7.5.1 cells. […] Second, to determine the kinetics of inhibition, a time-of-addition experiment was conducted. HCV remained sensitive to bafilomycin A1, a fusion inhibitor that prevents endosome acidification, until 3 hours after the 37° C. temperature shift (FIG. 5B), which is consistent with previous reports (Koutsoudakis et al., J Virol 2006; 80:5308-5320). […] In order to determine whether hEP-2 (SEQ ID NO: 9) blocks infection at the initial attachment step or a downstream event in the HCV entry process, hEP-2 (SEQ ID NO: 9) was either added together with HCVcc to cells during the 4° C. attachment step only, and then removed prior to shifting the temperature to 37° C., or added only after the temperature shift. As a positive control, hEP-1 was present during the entire course of the experiment. […] Finally, the direct binding of virions to cell surface was measured using a real-time PCR based assay.

Row | Structure (SMILES) | Cytotoxicity (cell viability) (Huh7.5.1 cells) | Time after 37° C. temperature shift until which HCV remained sensitive (HCVcc-luc [1]) | Inhibition when present after the temperature shift only (post-attachment) (HCVcc-luc [2])
1 | C[C@H](N)C(=O)N[C@@H]1[C@H]2C(=C(O)C[C@@H](O)[C@@H]2O)C(=O)O[C@]1(C)C(Cl)Cl [Bactobolin, reference compound] | induced significant cell death | – | –
2 | CO/C1=C\C(C)=C\[C@@H](C)[C@@H](O)[C@@H](C)C/C(C)=C/C=C/[C@H](OC)[C@@H]([C@@H](C)[C@@H](O)[C@H](C)[C@@]2(O)C[C@@H](O)[C@H](C)[C@@H](C(C)C)O2)OC1=O [bafilomycin A1, reference compound] | – | ≤ 3 h | most effective
